One data set has as its system BE(2)-M17 cells. Nature of the data set: Cell viability of differentiated BE(2)-M17 cells. The class given is cell-based. The conditions noted are these: 10 days, 25 μM. The source says:
Our neuronal model uses stable BE(2)-M17 dopaminergic-like neuronal cell lines that constitutively express two prevalent GBA1 mutations, p.N370S and p.L444P [37]. These neuronal cell lines undergo post-mitotic differentiation and display a dopaminergic phenotype, neurite extension, and sphingolipid accumulation. Therefore, they serve as an excellent model for evaluating the biological efficacy of therapeutic interventions, such as our PCs, aimed at restoring GCase activity in vitro. Subsequently, we induced differentiation of BE(2)-M17 cell lines into post-mitotic neuronal cells, a crucial step for investigating the effects of lysosomal system impairment and its consequences in terms of intracellular macromolecule accumulation. Following differentiation, cells were treated for an extended period (10 days) with the selected compounds to analyze their impact on GCase stability, GCase activity, sphingolipid accumulation, and cell viability. […]
Cells were plated and treated with compound 3, as previously described. After completing the treatment, the viability of the differentiated cells was assessed by calculating the percentage of viable cells, which was determined by counting both viable and dead cells. Triplicate measurements from at least three independent samples were analyzed using a Muse Cell Analyzer cytometer. […]

Data set [1] in a line: NeuroPK: plasma and brain levels after i.v. administration. It is filed as in vivo, male C57BL/6 mice. The conditions noted are these: mouse, i.v. 10 mg/kg. On the procedure: Finally, we investigated whether compound 3 can cross the BBB and enter the central nervous system following intravenous (i.v.) administration. This is a preliminary step in developing the compound as a disease-modifying therapy for neuropathic GD and other neurological disorders linked to GBA mutations, such as PD and other synucleinopathies. Pharmacokinetics and brain penetrability were assessed by measuring the levels of compound 3 in brain tissue and plasma after intravenous administration (10 mg/kg) in wild-type mice.
The brain penetration of compound 3 following intravenous injection was evaluated as follows. Nine male C57BL/6 mice received an intravenous dose of 10 mg/kg of the compound in a solution formulation consisting of 5% v/v NMP (N-methyl-2-pyrrolidone), 10% v/v Solutol® HS-15, 30% v/v PEG-400, and […]. Blood samples (approximately 60 µL) were collected under light isoflurane anesthesia from three mice at each of the following time points: 0.25, 2, and 8 h. Plasma was obtained by centrifuging the blood and stored at −70 ± 10 °C until analysis. Brain samples were also collected from each mouse at the respective time points. Tissue samples were homogenized using ice-cold phosphate-buffered saline (pH 7.4), and the homogenates were stored below −70 °C until analysis. The total homogenate volume was three times the brain weight.
The concentration-time data from plasma and brain samples were used for pharmacokinetic analysis. Both plasma and brain samples were quantified using a fit-for-purpose LC-MS/MS method, with a lower limit of quantification (LLOQ) of 1.00 ng/mL for plasma and 2.00 ng/mL for the brain. The LC conditions were as follows: Thermo Scientific™ Accucore™ C18 column (2.7 µm, 50 mm × 2.1 mm), run time of 1.6 min, injection volume of 1 µL, and flow rate of 0.8 mL/min. The mobile phase consisted of 0.1% formic acid in acetonitrile (A) and 10 mM ammonium formate (B), with the following gradient: 0.00 min/95% B, 0.30 min/95% B, 0.50 min/5% B, 1.20 min/5% B, 1.40 min/95% B, and 1.60 min/95% B.

This is an account of results in paper PMC11720699, “Developing Allosteric Chaperones for GBA1-Associated Disorders—An Integrated Computational and Experimental Approach” (International Journal of Molecular Sciences, 2024).

As a reminder, the Kp is the ratio of the level in a tissue or fluid to that in plasma or blood.

For the molecule `CN(C(=O)c1cc(N)cc(Nc2cccc3c2OCO3)n1)c1ccccc1` [Compound 3], in the data set with BE(2)-M17 cells, the “effect on cell viability” value is reported as “improved cellular viability”. The same molecule yielded a concentration ratio (Kp) at […] in data set [1] (male, C57BL/6, brain/plasma, iv, 0.25 h) of 4.37. Also, the concentration ratio (Kp) at 2 h in data set [1] (male, C57BL/6, brain/plasma, iv, 2 h) is 3.29. The molecule also displayed a Kp at 8 h in data set [1] (male, C57BL/6, brain/plasma, iv, 8 h) of 1.16. The same molecule had a concentration at […] in data set [1] (male, C57BL/6, plasma, iv, 0.25 h) of 1970 ng/mL. Besides, in data set [1] (male, C57BL/6, plasma, iv, 2 h), the concentration at 2 h turned out to be 65.1 ng/mL. The same molecule came in with a concentration at 8 h in data set [1] (male, C57BL/6, plasma, iv, 8 h) of 11.4 ng/mL. Further, the “Brain Concentration” value in data set [1] (2 h) is listed as 221.14 n/g; in data set [1] (8 h), 13.64 n/g.
